Where two headings read alike, the source gives them in different places. A value given as a limit tells only on which side of the number the result lay.

Data set [1] concerns HIV-1 strain HTLVIIIB
In words: Inhibition of HIV-1 HTLVIIIB replication in PBMC (p24 antigen EIA). Particulars: HIV-1 strain HTLVIIIB in human PBMC, p24 EIA on 7th day after infection; for IC50: read-out: IC50 [HTL VIIIB]. The class given is cell-based. How it is done:
The cells were then infected with virus at a multiplicity of infection (MOI) of 0.1 during a one-hour adsorption period at 37° C. in a humidified 5% CO2 atmosphere. Subsequently, cells were cultured in 96-well microplates (100 μL/well; 2×10^6 cells/mL, triplicate wells) in the presence of various inhibitor concentrations. […] Ag. […] The applied p24 EIA was the unmodified kinetic assay commercially available from Coulter Corporation/Immunotech, Inc. (Westbrook, Me.).
To test the therapeutic activity of the compounds of the invention, p24 assays were utilized as previously described. […] 1 during a one-hour adsorption period at 37° C. in a humidified 5% CO2 atmosphere. Subsequently, cells were cultured in 96-well microliter plates ([…]; 2×10^6 cells/mL, triplicate wells) in the presence of various inhibitor concentrations. Aliquots of culture supernatants were removed from the wells on the 7th day after infection for p24 antigen p24 enzyme immunoassays (EIA).
The applied p24 EIA was the unmodified kinetic assay commercially available from Coulter Corporation/Immunotech, Inc. (Westbrooke, Me.), which utilizes a murine monoclonal antibody to HIV core protein coated onto microwell strips to which the antigen present in the test culture supernatant samples binds. Percent inhibition of viral replication was calculated by comparing the p24 values from the test substance treated infected cells with p24 values from untreated infected cells (i.e., virus controls).

The subject of data set [2] is human peripheral blood mononuclear cells (PBMC). In words: Microculture Tetrazolium Assay (MTA, XTT) for cell viability of non-infected PBMC. It is filed as cell-based. Particulars: 7 days, read-out: CC (cytotoxic concentration, CC50). On the procedure:
In parallel, the effects of various treatments on cell viability were also examined, as described in Enrice et.al., supra. In brief, non-infected PBNWC were treated with each compound for 7 days under identical experimental conditions. A Microculture Tetrazolium Assay (MTA), using 2,3-bis(2-methoxy-4nitro-5-sulfophenyl)-5-[(phenylarnino)-carbonyl]-2H-tetrazolium hydroxide (XTT), was performed to quantitate cellular proliferation.
On the technique in general: Formazan colour is commonly taken as a measure of viable cells.

The subject of data set [3] is HIV-1 strain A17 (Y181C). The data set can be described thus: Inhibition of replication of NNI-resistant HIV-1 strain A17 in PBMC. It is filed as cell-based. Conditions: for IC50: read-out: IC50 A17 (Y181C). On the procedure:
(§1) The ability of Compounds 4 (HI-516), 11 (HI-566), and 12 (HI-565) to inhibit the replication of NNI-resistant HIV-1 strains, A17 (Y181C) and RT-MDR (V106A), was analyzed. The anti-HIV activity of the compounds was measured by determining their ability to inhibit the replication of HIV-1 strains A17 in PBMC from healthy volunteer donors and RT-MDR in H9 cells.
(§2) Compounds 4, 11, and 12 were compared with nevirapine or delavirdine, two known non-nucleoside reverse transcriptase inhibitors of HIV-1 RT.

The subject of data set [4] is HIV-1 strain RT-MDR (V106A). In words: Inhibition of replication of NNI-resistant HIV-1 strain RT-MDR in H9 cells. The class given is cell-based. How it is done:
as §1, §2

[5] abbreviates: A17 in PBMC from healthy volunteer donors.
The mark [6] stands for this setting: RT-MDR in H9 cells, read-out: IC50 RT-MDR (V106A).
The mark [7] stands for this setting: Human immunodeficiency virus 1, PBMC.
Where [8] appears, read: Human immunodeficiency virus 1, H9, read-out: IC50 RT-MDR (V106A).

What is called IC50 is the concentration at which inhibition is half-maximal. Take `S=C(NCCOc1ccccc1)Nc1ccccn1` [Compound 8, N-[2-(Phenoxy)ethyl]-N′-[2-(pyridyl)]thiourea]: the concentration for half-maximal inhibition (IC50) in data set [1] turned out to be 5 nM. Besides, the CC50 in data set [2] was 55000 nM.

Take `FC(CNC(=S)Nc1ccc(Br)cn1)c1ccccc1` (stereo not drawn) [Compound 12, β-Fluoro[2-phenethyl]-N′-[2-(5-bromopyridyl)]thiourea]: in data set [1], the “IC50 [HTL VIIIB]” value was “subnanomolar”. For the same compound, the IC50 is less than 1 nM in data set [1], 100 nM in data set [3] (setting [5]) and 200 nM in data set [4] (setting [6]). Moreover, in data set [2], the CC50 was 50000 nM. Also, in data set [4] (RT-MDR in H9 cells), the “IC50 RT-MDR (V106A)” value is listed as “submicromolar”.

As to `S=C(NCCN1CCCCC1)Nc1ccccn1` [Compound 1], the IC50 in data set [1] was greater than 100000 nM.

Take `S=C(NCCN1CCCCC1)Nc1ccc(Cl)cn1` [Compound 5, N-[2-(1-piperidinylethyl)]-N′-[2-(5-chloropyridyl)]-thiourea]: in data set [1], the “IC50 [HTL VIIIB]” value is reported as “nanomolar concentrations” and the IC50 was 1 nM.

As to `Cc1ccnc2c1NC(=O)c1cccnc1N2C1CC1` [Nevirapine, reference compound], the IC50 in data set [3] (setting [7]) is 21400 nM; in data set [4] (setting [8]), 1400 nM.

In the case of `S=C(NCCOc1ccccc1)Nc1ccc(Br)cn1` [Compound 10, N-[2-(Phenoxy)ethyl]-N′-[2-(5-bromopyridyl)] thiourea], the IC50 in data set [1] was found to be 5 nM. Moreover, the CC50 in data set [2] was determined as 92000 nM.

On to `S=C(NCCc1ccccn1)Nc1ccc(Br)cn1` [Trovirdine, reference compound], for which the 50% inhibitory concentration (IC50) in data set [1] was determined as 7 nM. Further, the CC50 in data set [2] was determined as 100000 nM.

For the compound `CC1CCCN(CCNC(=S)Nc2ccc(Cl)cn2)C1` (stereo not drawn) [Compound 6, N-[2-(3-methylpiperidinylethyl)]-N′-[2-(5-chloropyridyl)]-thiourea], the IC50 in data set [1] was 20 nM.

In general, melting point refers to the temperature of the solid-liquid transition. `CC1CCCCN1CCCNC(=S)Nc1ccc(Cl)cn1` (stereo not drawn) [Compound 7, N-[3-(2-methylpiperidinylpropyl)]-N′-[2-(5-chloropyridyl)]-thiourea]: the melting point lay in the range of 117 to 118 °C. Besides, the IC50 in data set [1] (Human immunodeficiency virus 1) stood at 1 nM.

On to `CC1CCCN(CCNC(=S)Nc2ccc(Br)cn2)C1` (stereo not drawn) [Compound 3, N-[2-(3-methylpiperidinylethyl)]-N′-[2-(5-bromopyridyl)]-thiourea], for which the half-maximal inhibitory concentration (IC50) in data set [1] came out at 80 nM.

On to `CC(C)Nc1cccnc1N1CCN(C(=O)c2cc3cc(NS(C)(=O)=O)ccc3[nH]2)CC1` [Delavirdine, reference compound], for which the half-inhibitory concentration (IC50) in data set [3] (setting [7]) stood at 50000 nM; in data set [4] (setting [8]), 400 nM.

For the compound `CC1CCCCN1CCNC(=S)Nc1ccc(Br)cn1` (stereo not drawn) [Compound 4, N-[2-(2-methylpiperidinylethyl)]-N′-[2-(5-bromopyridyl)]-thiourea], the IC50 was less than 1 nM in data set [1], greater than 100000 nM in data set [3] (setting [5]) and 1900 nM in data set [4] (setting [6]). The “IC50 A17 (Y181C)” value in data set [3] (setting [5]) is “not active”. Further, the CC50 in data set [2] is 50000 nM. Also, the “IC50 RT-MDR (V106A)” value in data set [4] (RT-MDR in H9 cells) is “less active than nevirapine or delavirdine”.

For `S=C(NCCN1CCCCC1)Nc1ccc(Br)cn1` [Compound 2, N-[2-(1-piperidinylethyl)]-N′-[2-(5-bromopyridyl)]-thiourea], in data set [1], the “IC50 [HTL VIIIB]” value is “nanomolar concentrations” and the IC50 was found to be 2 nM.

With `FC(CNC(=S)Nc1ccc(Cl)cn1)c1ccccc1` (stereo not drawn) [Compound 11, β-Fluoro[2-phenethyl]-N′-[2-(5-chloropyridyl)] thiourea], in data set [1], the “IC50 [HTL VIIIB]” value is “subnanomolar”. Besides, the IC50 in data set [1] was less than 1 nM; in data set [3] (setting [5]), 100 nM; in data set [4] (setting [6]), 100 nM. For the same compound, the CC50 in data set [2] stood at 30000 nM. In addition, the “IC50 RT-MDR (V106A)” value in data set [4] (RT-MDR in H9 cells) is reported as “submicromolar”.

Consider `S=C(NCCOc1ccccc1)Nc1ccc(Cl)cn1` [Compound 9, N-[2-(Phenoxy)ethyl]-N′-[2-(5-chloropyridyl)]thiourea], for which the concentration for half-maximal inhibition (IC50) in data set [1] worked out at 4 nM. Moreover, the CC50 in data set [2] was greater than 100000 nM.

Values taken from US20020151568A1, “Piperidinylethyl-, phenoxyethyl-, and beta-fluorophenethyl-substituted thiourea compounds with potent anti-HIV activity” (priority 2000, published 2002).
